Test results reported in article PMC8050276, “Estradiol analogs attenuate autophagy, cell migration and invasion by direct and selective inhibition of TRPML1, independent of estrogen receptors” (Scientific Reports, 2021).
“Also recorded” adds a separate entry of the source. Where two headings read alike, the source gives them in different places.

Key:
hTRPML3-YFP = biological target: T1, hTRPML3-YFP (Homo sapiens, UniProt Q8TDD5); assay: Fluo-4 Ca2+ influx assay, HEK293 stably expressing hTRPML3-YFP, activated with ML-SA1; type: cell-based
T1 construct: expressed in transfected cells
T1 sequence (Q8TDD5 whole entry): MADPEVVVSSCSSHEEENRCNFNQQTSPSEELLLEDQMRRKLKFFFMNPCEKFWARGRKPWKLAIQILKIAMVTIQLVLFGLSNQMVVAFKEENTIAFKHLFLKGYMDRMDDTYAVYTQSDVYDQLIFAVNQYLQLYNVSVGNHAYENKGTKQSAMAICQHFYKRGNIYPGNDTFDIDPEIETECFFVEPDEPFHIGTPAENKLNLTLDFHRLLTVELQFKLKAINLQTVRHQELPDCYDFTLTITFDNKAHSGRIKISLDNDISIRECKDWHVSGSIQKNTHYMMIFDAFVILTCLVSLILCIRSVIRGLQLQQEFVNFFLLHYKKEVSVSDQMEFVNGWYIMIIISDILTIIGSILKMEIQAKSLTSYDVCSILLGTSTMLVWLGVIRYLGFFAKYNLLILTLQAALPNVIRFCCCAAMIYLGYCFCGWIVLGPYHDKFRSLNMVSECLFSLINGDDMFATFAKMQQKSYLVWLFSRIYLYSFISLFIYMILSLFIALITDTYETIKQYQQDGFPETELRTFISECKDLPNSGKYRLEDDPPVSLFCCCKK
Method: To identify inhibitors of TRPML1 and TRPML3, the Spectrum Collection compound library (MS Discoveries; 2000 compounds) and additional 430 bioactive compounds were screened. To this end, fluorometric Ca^2+ influx assays were performed by using the calcium dye Fluo-4/AM (Invitrogen, Thermo Fisher Scientific, Waltham, MA, USA) and a custom-made fluorescence imaging plate reader built into a robotic liquid handling station (Freedom Evo 150, Tecan, Männedorf, Switzerland). All measurements were done in a HEPES buffered solution (HBS), containing 132 mM NaCl, 6 mM KCl, 1 mM MgCl2, 1 mM CaCl2, 5.5 mM D-glucose, 10 mM HEPES, pH 7.4. Screening compounds dissolved in DMSO (10 mM) were prediluted in 150 mM NaCl, 20 mM HEPES, pH 7.4, to a concentration of 200 µM. For primary screens, HEK293 stably expressing plasma membrane-targeted TRPML1 or TRPML3 were trypsinized and resuspended in cell culture medium supplemented with 4 µM Fluo-4/AM. After incubation at 37 °C for 30 min, the cell suspension was briefly centrifuged resuspended in HBS, and dispensed into black pigmented, clear-bottom 384-well microwell plates (Greiner μClear, Frickenhausen, Germany). Plates were placed into the FLIPR and fluorescence signals (excitation 470 nm, emission 515 nm) were recorded with a Zyla 5.5 camera (Andor, Belfast, UK) and the μManager software like previously described. In a first video, compound libraries were successively added to the cells with the Tecan 96-tip multichannel arm to a final concentration of 20 µM to map unspecific effects like autofluorescence or toxicity. In a second step the agonist ML-SA1 was pipetted in each well and fluorescence signals were recorded for 10 min. Analyses were done by calculating fluorescence intensities for each well and background areas with ImageJ (National Institutes of Health, Bethesda, MD, USA). Finally, the background was subtracted and the fluorescence intensities were normalized to initial intensities (F/F0). Concentration response curves were generated by the same procedure but compounds were manually prediluted in 96-well plates containing HBS, now supplemented with 0.1% bovine serum albumin. Here data was fitted to a four-parameter Hill equation to obtain Imin, Imax, IC50), and the Hill coefficient n.

hTPC2L11A/L12A-RFP = biological target: T2, hTPC2L11A/L12A-RFP (Homo sapiens, UniProt Q8NHX9, L11A/L12A); assay: Single cell Fura-2 calcium imaging, HEK293 stably expressing hTPC2L11A/L12A-RFP; type: cell-based; conditions: compound alone or 10 µM after TPC2-A1-N (10 µM)
T2 construct: expressed in transfected cells
T2 sequence (Q8NHX9 whole entry L11A/L12A): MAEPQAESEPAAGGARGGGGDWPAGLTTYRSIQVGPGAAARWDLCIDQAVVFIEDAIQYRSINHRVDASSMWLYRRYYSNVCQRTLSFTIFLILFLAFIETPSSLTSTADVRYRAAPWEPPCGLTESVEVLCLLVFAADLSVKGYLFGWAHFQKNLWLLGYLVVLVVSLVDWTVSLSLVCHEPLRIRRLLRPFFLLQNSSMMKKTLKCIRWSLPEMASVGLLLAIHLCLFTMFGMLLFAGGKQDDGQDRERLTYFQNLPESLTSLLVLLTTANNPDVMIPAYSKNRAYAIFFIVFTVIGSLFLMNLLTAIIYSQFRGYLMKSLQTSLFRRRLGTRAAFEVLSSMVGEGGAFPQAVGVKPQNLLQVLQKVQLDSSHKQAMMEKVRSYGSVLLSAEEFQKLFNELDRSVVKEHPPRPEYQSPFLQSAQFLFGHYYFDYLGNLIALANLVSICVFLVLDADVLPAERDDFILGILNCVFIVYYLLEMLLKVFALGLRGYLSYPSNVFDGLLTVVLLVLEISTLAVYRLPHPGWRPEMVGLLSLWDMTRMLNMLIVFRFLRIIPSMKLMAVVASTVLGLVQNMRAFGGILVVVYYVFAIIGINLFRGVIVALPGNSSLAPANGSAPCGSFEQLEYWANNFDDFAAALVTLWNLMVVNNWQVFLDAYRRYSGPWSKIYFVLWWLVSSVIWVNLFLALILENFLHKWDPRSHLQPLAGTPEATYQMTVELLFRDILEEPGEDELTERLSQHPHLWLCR
Method: Single cell Ca^2+ imaging experiments were performed using Fura-2 as previously described. HEK293 cells stably expressing hTRPML1∆NC-YFP, hTRPML2-YFP, hTPPML3-YFP or hTPC2L11A/L12A-RFP (22, 24) were cultured at 37 °C with 5% of CO2 in Dulbecco’s modified Eagle medium (Thermo Fisher), supplemented with 10% fetal bovine serum, 100 U/mL penicillin, and 0.1 mg/mL streptomycin. Cells were plated onto poly-L-lysine (sigma)-coated glass coverslips and grown for 2–3 days. For Ca^2+ imaging experiments cells were loaded for 1 h at room temperature with Fura-2 AM (4.0 µM) and 0.005% (v/v) pluronic acid (both from Thermo Fisher) in HEPES-buffered solution (HBS) comprising 138 mM NaCl, 6 mM KCl, 2 mM MgCl2, 2 mM CaCl2, 10 mM HEPES, and 5.5 mM D-glucose (adjusted to pH 7.4 with NaOH). After loading, cells were washed with HBS and mounted in an imaging chamber. All recordings were performed in HBS. Ca^2+ imaging was performed using a Leica DMi8 live cell microscope. Fura-2 was excited at 340 nm/380 nm. Emitted fluorescence was captured using 515 nm long-pass filter. Compounds were pre diluted in DMSO and stored as 10 mM stock solutions at − 20 °C, not exceeding three months. Working solutions were prepared directly before using by dilution with HBS.

human ERα = biological target: T3, human ERα (Homo sapiens, UniProt P03372); assay: Yeast estrogen receptor assay (YES-assay), Saccharomyces cerevisiae transfected with human ERα, lacZ reporter; type: cell-based; conditions: 0.01-100 µM, 48 h
T3 construct: host or cells: Saccharomyces cerevisiae
T3 sequence (P03372 whole entry): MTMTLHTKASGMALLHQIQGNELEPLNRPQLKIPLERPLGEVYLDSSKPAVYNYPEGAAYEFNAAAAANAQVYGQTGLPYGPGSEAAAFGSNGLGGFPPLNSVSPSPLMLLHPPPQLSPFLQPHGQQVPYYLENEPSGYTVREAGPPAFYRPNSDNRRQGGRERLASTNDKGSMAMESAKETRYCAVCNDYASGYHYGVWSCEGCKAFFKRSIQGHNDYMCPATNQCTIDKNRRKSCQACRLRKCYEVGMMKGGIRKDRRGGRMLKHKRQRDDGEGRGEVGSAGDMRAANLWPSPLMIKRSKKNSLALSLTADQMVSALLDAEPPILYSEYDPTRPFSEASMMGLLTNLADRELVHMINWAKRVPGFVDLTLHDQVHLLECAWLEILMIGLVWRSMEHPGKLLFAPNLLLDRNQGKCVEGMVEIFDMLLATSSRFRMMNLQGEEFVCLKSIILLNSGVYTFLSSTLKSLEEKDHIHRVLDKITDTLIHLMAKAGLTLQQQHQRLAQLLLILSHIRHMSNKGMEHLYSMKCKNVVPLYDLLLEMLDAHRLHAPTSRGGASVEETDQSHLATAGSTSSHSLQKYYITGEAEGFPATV
Method: The yeast estrogen receptor assay (YES-assay) was provided by Dr. J.P. Sumpter (Brunel University, Uxbridge, UK; Routledge & Sumpter, 1996) and was used to determine the relative transactivation activity of the human ERα in response to test substances as previously described. Briefly, Saccharomyces cerevisiae stably transfected with a human ERα construct and an estrogen responsive element fused to the reporter gene lacZ encoding for β-galactosidase were treated with the test substances for 48 h. The β-galactosidase enzymatic activity was measured in a colorimetric assay using the substrate chlorophenol red β-D-galactopyranoside (Roche Diagnostics, Mannheim Germany). Formation of chlorophenol red was measured at 540 nm. For the test, all compounds were diluted in DMSO. 17β-estradiol (10 nM; Sigma, Deisenhofen, Germany) served as positive control and DMSO was used as vehicle control. All compounds, were dose dependently tested in a concentration range of 0.01–100 µM, using technical quadruplicates and biological triplicates.

MDA-MB-231 cells = assay: Wound healing/migration scratch assay; type: cell-based, human; conditions: various concentrations, o/n
Method: Wound healing assay was performed using 12-well plates (Sarstedt) at full confluency. Cells were incubated overnight (serum-free), and a scratch was performed using a yellow pipet tip. Pictures were taken at 0 h and after over night (o/n) incubation using an inverted microscope (Leica DM IL LED) and using a microscope camera (Leica DFC 3000 G).

[1] = Fluo-4, 5 µM ML-SA1, Table S1, read-out: TRPML3 IC50

CC(=O)c1ccc2c(c1)CC[C@@H]1[C@@H]2CC[C@]2(C)[C@@H](O)CC[C@@H]12 [PRU-12]
IC50 (hTRPML3-YFP; [1]): 14.1 µM
effect on hTPC2, Fura-2 (hTPC2L11A/L12A-RFP): Neither an activating nor a blocking effect
effect/efficacy at ERα (human ERα): relatively low efficacy; also recorded: weakest effects

C=Cc1ccc2c(c1)CC[C@@H]1[C@@H]2CC[C@]2(C)[C@@H](O)CC[C@@H]12 [PRU-10]
IC50 (hTRPML3-YFP; [1]): 15.8 µM
effect on hTPC2, Fura-2 (hTPC2L11A/L12A-RFP): Neither an activating nor a blocking effect
effect/efficacy at ERα (human ERα): relatively low efficacy; also recorded: weakest effects

COc1ccc2c(c1)CC[C@@H]1[C@@H]2CC[C@]2(C)[C@@H](O)CC[C@@H]12 [EDME, 17β-estradiol methyl ether]
IC50 (hTRPML3-YFP): 19.5 µM
effect/efficacy at ERα (human ERα): comparably strong effects
migration of MDA-MB-231 cells (MDA-MB-231 cells): reduced significantly
